From ChEMBL document CHEMBL1201862, “PubChem BioAssay data set” (2004)
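Assay format: 96-well plates, 48-hour exposure. Abbreviation: GI50, concentration required for 50% inhibition of growth.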 Active and inactive are the calls of the source. No stated cut-off is given here; in the data, active = GI50 up to about 1.1 µM and inactive = higher.

Columns and labels:
Assay in all cases: NCI anticancer screen, dose series, 48 h
A498 = test system: A498
BT-549 = test system: BT-549
DU-145 = test system: DU-145
HT-29 = test system: HT-29
IGROV-1 = test system: IGROV-1
KM12 = test system: KM12
MOLT-4 = test system: MOLT-4
NCI-H23 = test system: NCI-H23
OVCAR-3 = test system: OVCAR-3
OVCAR-8 = test system: OVCAR-8
SF-268 = test system: SF-268
SF-295 = test system: SF-295
SK-MEL-28 = test system: SK-MEL-28
SK-MEL-2 = test system: SK-MEL-2
SR = test system: SR
T47D = test system: T47D
TK-10 = test system: TK-10
U-251 = test system: U-251
UO-31 = test system: UO-31
HCC 2998 = test system: HCC 2998

Measured: GI50

CCC1c2[nH]c3ccccc3c2C[C@H]2C(=O)NC(Cc3c[nH]c4ccccc34)C(=O)N12 (stereo not given in full)
inactive: A498 30.5 µM | BT-549 22.6 µM | DU-145 37.7 µM | HT-29 24.2 µM | IGROV-1 24.4 µM | KM12 18.9 µM | MOLT-4 15.9 µM | NCI-H23 25.5 µM | OVCAR-3 18.2 µM | OVCAR-8 32.7 µM | SF-268 29.7 µM | SF-295 17.3 µM | SK-MEL-28 33.9 µM | SK-MEL-2 20 µM | SR 16.9 µM | T47D 26.4 µM | TK-10 23.2 µM | U-251 17.5 µM | UO-31 27.7 µM

Cc1ccc(C)c(NC(=O)NCc2ccc(Cl)cc2)c1
inactive: A498 20.8 µM | BT-549 > 100 µM | DU-145 > 66.7 µM | HT-29 > 100 µM | IGROV-1 41.9 µM | KM12 87.3 µM | NCI-H23 35.7 µM | OVCAR-3 28.5 µM | OVCAR-8 34.9 µM | SF-268 38.9 µM | SF-295 16.7 µM | SK-MEL-28 97.5 µM | SK-MEL-2 > 63 µM | SR 13.8 µM | T47D 43.7 µM | TK-10 20.5 µM | U-251 17.7 µM | UO-31 31 µM

Cn1c(C(C)(C)OC(=O)Oc2ccccc2)cnc1[N+](=O)[O-]
inactive: A498 > 100 µM | BT-549 > 100 µM | DU-145 > 100 µM | HT-29 34 µM | IGROV-1 55.6 µM | KM12 58.6 µM | MOLT-4 16.7 µM | NCI-H23 > 100 µM | OVCAR-3 93.5 µM | OVCAR-8 70.6 µM | SF-268 > 100 µM | SF-295 > 100 µM | SK-MEL-28 > 100 µM | SK-MEL-2 > 100 µM | SR 16.8 µM | T47D > 100 µM | TK-10 > 100 µM | U-251 > 100 µM | UO-31 > 100 µM

CCOC(=O)CSc1nnc2cc(CN3CCCC3)c(-c3ccc(Cl)cc3)nn12
inactive: A498 > 100 µM | BT-549 > 100 µM | DU-145 71.6 µM | HT-29 74.5 µM | IGROV-1 > 100 µM | KM12 > 100 µM | MOLT-4 38.5 µM | NCI-H23 > 100 µM | OVCAR-3 > 100 µM | OVCAR-8 > 100 µM | SF-268 > 100 µM | SF-295 > 100 µM | SK-MEL-28 > 100 µM | SK-MEL-2 > 100 µM | SR 41 µM | T47D 57.5 µM | TK-10 > 100 µM | U-251 > 100 µM | UO-31 > 100 µM

C=C1CCC2CC1C(C(=O)c1c[nH]c3ccccc13)=NC2(C)C (stereo not given)
inactive: A498 > 100 µM | BT-549 > 100 µM | DU-145 > 100 µM | HCC 2998 > 100 µM | HT-29 > 100 µM | IGROV-1 > 100 µM | KM12 > 100 µM | MOLT-4 > 100 µM | NCI-H23 > 100 µM | OVCAR-3 > 100 µM | OVCAR-8 > 100 µM | SF-268 > 100 µM | SK-MEL-28 > 100 µM | SR > 100 µM | T47D 48.2 µM | U-251 > 100 µM | UO-31 > 100 µM

NCCCC(N)C(=O)O (stereo not given)
inactive: A498 > 100 µM | BT-549 > 100 µM | DU-145 > 100 µM | HT-29 > 100 µM | IGROV-1 > 100 µM | KM12 > 100 µM | MOLT-4 > 100 µM | NCI-H23 > 100 µM | OVCAR-3 > 100 µM | OVCAR-8 > 100 µM | SF-268 > 100 µM | SF-295 > 100 µM | SK-MEL-28 > 100 µM | SK-MEL-2 > 100 µM | SR > 100 µM | T47D > 100 µM | TK-10 > 100 µM | U-251 > 100 µM | UO-31 > 100 µM

CN(C)c1ncnc2c1ncn2C1C=CC(COS(N)(=O)=O)C1 (stereo not given)
inactive: A498 > 100 µM | BT-549 > 100 µM | DU-145 > 100 µM | HCC 2998 > 100 µM | HT-29 > 100 µM | IGROV-1 > 100 µM | KM12 > 100 µM | MOLT-4 > 100 µM | NCI-H23 80.9 µM | OVCAR-3 > 100 µM | OVCAR-8 83.6 µM | SF-268 > 100 µM | SF-295 > 100 µM | SK-MEL-28 > 100 µM | SK-MEL-2 > 100 µM | SR > 100 µM | T47D > 100 µM | U-251 > 100 µM | UO-31 > 100 µM

O=C(NN=C1NCCN1)c1ccco1
inactive: BT-549 > 100 µM | DU-145 > 100 µM | HCC 2998 > 100 µM | HT-29 > 100 µM | IGROV-1 > 100 µM | KM12 > 100 µM | MOLT-4 > 100 µM | NCI-H23 > 100 µM | OVCAR-3 > 100 µM | OVCAR-8 > 100 µM | SF-268 > 100 µM | SF-295 > 100 µM | SK-MEL-28 > 100 µM | SK-MEL-2 > 100 µM | SR > 100 µM | T47D > 100 µM | TK-10 > 100 µM | U-251 > 100 µM | UO-31 > 100 µM

Cc1cc2nc(N)n[n+]([O-])c2cc1C
inactive: A498 > 100 µM | BT-549 > 100 µM | DU-145 > 100 µM | HCC 2998 > 100 µM | HT-29 > 100 µM | IGROV-1 > 100 µM | KM12 > 100 µM | MOLT-4 > 100 µM | NCI-H23 > 100 µM | OVCAR-8 > 100 µM | SF-268 > 100 µM | SF-295 > 100 µM | SK-MEL-28 > 100 µM | SK-MEL-2 > 100 µM | SR > 100 µM | T47D > 100 µM | TK-10 > 100 µM | U-251 > 100 µM | UO-31 > 100 µM

CN1CC=C(C#CC(C)(C)O)CC1
inactive: BT-549 > 37.5 µM | DU-145 > 37.5 µM | HCC 2998 > 37.5 µM | HT-29 > 37.5 µM | IGROV-1 > 37.5 µM | KM12 > 37.5 µM | MOLT-4 > 37.5 µM | NCI-H23 > 37.5 µM | OVCAR-3 > 37.5 µM | OVCAR-8 > 37.5 µM | SF-268 > 37.5 µM | SF-295 > 37.5 µM | SK-MEL-28 > 37.5 µM | SK-MEL-2 > 37.5 µM | SR > 37.5 µM | T47D > 37.5 µM | TK-10 > 37.5 µM | U-251 > 37.5 µM | UO-31 > 37.5 µM

CCOC(=O)c1cc(-c2ccc(Cl)cc2)c([N+](=O)[O-])n1C
inactive: BT-549 > 10 µM | DU-145 > 10 µM | HCC 2998 > 10 µM | HT-29 > 10 µM | IGROV-1 > 10 µM | KM12 > 10 µM | MOLT-4 > 10 µM | NCI-H23 > 10 µM | OVCAR-3 > 10 µM | OVCAR-8 > 10 µM | SF-268 > 10 µM | SF-295 > 10 µM | SK-MEL-2 > 10 µM | SR 5.08 µM | T47D 2.05 µM | TK-10 > 10 µM | U-251 > 10 µM | UO-31 5.48 µM
